Data reported in the NIST ThermoML archive (doi:10.1021/je501141e).
“And” between values parts separate entries of the source, which are not always exact repeats. Equal entries are not always repeated. ± gives the expanded uncertainty stated by the source.

What was measured:
[1] = 101.33 kPa, Liquid; for viscosity: Concentric cylinders viscometry; for speed of sound: Sing-around technique in a fixed-path interferometer; for mass density: Vibrating tube method
[2] = xn = mol fraction of the nth substance listed; details: 100 kPa, Liquid, Concentric cylinders viscometry, x2 = 0

CC(CC(C)(C)C)CC(C)(C)CC(C)(C)C (configuration not stated) [2,2,4,4,6,8,8-heptamethylnonane]
[1]
Details | mass density [kg/m3] | speed of sound [m/s] | viscosity
293.15 K | 784.48 ± 0.21 | 1285.8 ± 1.4 | 3.71 ± 0.03 mPa·s
303.15 K | 777.78 ± 0.22 | 1248.6 ± 1.4 | 2.93 ± 0.03 mPa·s
313.15 K | 771.07 ± 0.22 | 1212 ± 1.4 | 2.37 ± 0.03 mPa·s
323.15 K | 764.34 ± 0.22 | 1176.2 ± 1.4 | 1.95 ± 0.02 mPa·s
333.15 K | 757.59 ± 0.22 | 1141 ± 1.4 | 1.64 ± 0.02 mPa·s
343.15 K | 750.83 ± 0.22 | 1106.5 ± 1.4 | 1.39 ± 0.02 mPa·s
353.15 K | 743.9 ± 0.4 | – | 1.19 ± 0.02 mPa·s
363.15 K | 737 ± 0.4 | – | 1.04 ± 0.02 mPa·s
373.15 K | 730.2 ± 0.4 | – | 0.91 ± 0.02 mPa·s and 0.913 ± 0.021 mPa·s

CC(CC(C)(C)C)CC(C)(C)C [2,2,4,6,6-pentamethylheptane] + CC(CC(C)(C)C)CC(C)(C)CC(C)(C)C
[2]
Details | viscosity [mPa·s]
293.15 K | 1.31 ± 0.02
303.15 K | 1.11 ± 0.02
313.15 K | 0.948 ± 0.021
323.15 K | 0.82 ± 0.021
333.15 K | 0.715 ± 0.021
343.15 K | 0.632 ± 0.021
353.15 K | 0.562 ± 0.021
363.15 K | 0.505 ± 0.021
373.15 K | 0.459 ± 0.021

CC(CC(C)(C)C)CC(C)(C)C [2,2,4,6,6-pentamethylheptane]
[1]
Details | mass density [kg/m3] | speed of sound [m/s] | viscosity
293.15 K | 745.21 ± 0.19 | 1203.7 ± 1.3 | 1.31 ± 0.02 mPa·s
303.15 K | 737.93 ± 0.19 | 1164.9 ± 1.3 | 1.11 ± 0.02 mPa·s
313.15 K | 730.61 ± 0.19 | 1126.7 ± 1.2 | 0.94 ± 0.02 mPa·s and 0.948 ± 0.021 mPa·s
323.15 K | 723.26 ± 0.19 | 1089.3 ± 1.2 | 0.82 ± 0.02 mPa·s
333.15 K | 715.86 ± 0.2 | 1052.6 ± 1.2 | 0.715 ± 0.021 mPa·s and 0.71 ± 0.02 mPa·s
343.15 K | 708.42 ± 0.2 | 1016.5 ± 1.2 | 0.632 ± 0.021 mPa·s and 0.63 ± 0.02 mPa·s
353.15 K | 700.7 ± 0.4 | – | 0.562 ± 0.021 mPa·s and 0.56 ± 0.02 mPa·s
363.15 K | 693.1 ± 0.4 | – | 0.505 ± 0.021 mPa·s and 0.5 ± 0.02 mPa·s
373.15 K | 685.4 ± 0.4 | – | 0.459 ± 0.021 mPa·s and 0.45 ± 0.02 mPa·s
